Tests used:
[1] = test system: HUVEC primary endothelial cells; experiment: HUVEC proliferation assay (CyQUANT Direct); assay type: cell-based; settings: Homo sapiens, 72 h, 3 days incubation
Method: HUVEC Proliferation Assay
Proliferation of HUVEC primary endothelial cells was used as cell-based mechanistical assay.^25 Applying the CyQUANT@ Direct Cell Proliferation Assay (Invitrogen C35011) which is based on a cell-permeant fluorescent DNA-binding dye, DNA content is used as a direct measure for cell number. Pooled HUVEC cells (Promocell C-12203) are cultivated in the medium supplied by Promocell (Cat No C-22020) for maximum 4 passages. For the assay 500 cells/well are seeded into black 384-well culture plates with clear bottom in 70 μl culture medium and incubated for 6 hours at 37° C., 5% CO2. 10 μl prediluted test compounds are added and cells incubated for 3 days at 37° C., 5% CO2 before measurement of DNA content. CyQUANT detection reagent is prepared according to the manufacturers protocol, 20 μl/well added and incubated at 37° C., 5% CO2 for at least 1 h before measurement of fluorescence at Envision multimode reader (Perkin-Elmer, Waltham) with excitation 480 nm and emission 535 nm (bottom read mode). The assay is performed as dose response with 10 compound dilutions. Inhibitory values (IC50) were determined using the program ASSAY ANALYZER® from GeneData (Basel, Switzerland).

MetAP-2 [2] = target: T1, MetAP-2 (Homo sapiens, UniProt P50579); experiment: Degradation of MetAP-2 in HCT116 cells (Western blot, MetAp2/GAPDH signal); assay type: cell-based; design: endogenous in cells; host or cells: HCT116; settings: for Signal MetAp2/GAPDH normalized to untreated (DMSO): HTC116 cells, <1 means degradation
Target sequence in this assay (P50579 whole entry, the tested form may be a part): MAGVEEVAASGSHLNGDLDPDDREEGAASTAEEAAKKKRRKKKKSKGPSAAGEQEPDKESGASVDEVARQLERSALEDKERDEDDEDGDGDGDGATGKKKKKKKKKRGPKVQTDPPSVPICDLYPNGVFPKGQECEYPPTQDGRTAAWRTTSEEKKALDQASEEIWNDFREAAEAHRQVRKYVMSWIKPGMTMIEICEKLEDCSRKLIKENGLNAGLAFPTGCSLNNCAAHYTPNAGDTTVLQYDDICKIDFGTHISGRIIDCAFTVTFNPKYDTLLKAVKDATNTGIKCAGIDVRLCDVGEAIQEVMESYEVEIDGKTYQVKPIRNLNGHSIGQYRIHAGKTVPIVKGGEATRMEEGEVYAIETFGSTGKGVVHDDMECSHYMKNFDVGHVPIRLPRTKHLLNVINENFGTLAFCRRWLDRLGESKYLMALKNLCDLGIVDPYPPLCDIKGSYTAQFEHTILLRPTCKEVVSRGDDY

MetAP-2 [3] = target: T1, MetAP-2; experiment: Biochemical activity testing of MetAP-2 (enzyme-coupled assay, Met-Ala-Ser substrate); design: N-terminal His tag human rec MetAP2 (prepared in house, AA 2-478, final concentration (fc) 123 nM); His tag (N); TEV cleavage site (N); made in house
Method: Biochemical Activity Testing of MetAP-2
MetAP-2 activity was determined by an enzyme-coupled assay using the tripeptide Met-Ala-Ser (MAS) as substrate and recombinant human MetAP-2 (His-Tev-MetAP-2, prepared at Merck). The released methionine is converted by L-amino acid oxidase (AAO) to oxidized Methionine and hydrogen peroxide is released. In a second step horse radish peroxidase catalyzes the oxidation of the leuko dye dianisidine to oxidized dianisidine using hydrogen peroxide as co-substrate. The produced dianisidine ox was detected photometrically as increase in absorbance at 450 nm. Met-AP2 activity was determined in a kinetic measurement mode. The release of one molecule methionine corresponds to the production of one molecule dianisidine ox. The MetAP2 enzymatic activity is directly corresponding to the increase in absorbance per time.
In detail, the assay was performed in 384 well microtiter plate (Greiner 78110 MTP, transparent) in a total reaction volume of 50 μl at 22° C. 0.35 μg of N-terminal His tag human rec MetAP2 (prepared in house, AA 2-478, final concentration (fc) 123 nM), 1 unit horse radish Peroxidase (Roche, Mannheim), 0.02 unit L-amino acid oxidase (Merck, Darmstadt), 0.6 mM dianisidine (Merck, Darmstadt, dissolved in 50 mM HCl, 10% DMSO) were incubated in the absence or presence of the test compound (10 dilution concentrations) in 100 mM Hepes, 50 mM NaCl, 50 μM MnCl2 at pH 7.0 for 15 min at 22° C. The reaction was started by the addition of 500 μM (fc) MAS peptide (Merck, Darmstadt). After mixing the first absorbance measurement was performed on an Envision multimode reader (Perkin-Elmer, Waltham) at wavelength of 450 nm. The reaction was incubated at 22° C. for additional 45 min and the second absorbance measurement was performed. The increase of absorbance per time was determined. The control value used was the inhibitor-free reaction with 0.5% DMSO (fc). As pharmacological inhibitor control Fumagillin (Merck, Darmstadt) in a final concentration of 5 μM was used. The inhibitory values (IC50) were determined using the program ASSAY ANALYZER® from GeneData (Basel, Switzerland).
Target sequence in this assay (P50579 2-478): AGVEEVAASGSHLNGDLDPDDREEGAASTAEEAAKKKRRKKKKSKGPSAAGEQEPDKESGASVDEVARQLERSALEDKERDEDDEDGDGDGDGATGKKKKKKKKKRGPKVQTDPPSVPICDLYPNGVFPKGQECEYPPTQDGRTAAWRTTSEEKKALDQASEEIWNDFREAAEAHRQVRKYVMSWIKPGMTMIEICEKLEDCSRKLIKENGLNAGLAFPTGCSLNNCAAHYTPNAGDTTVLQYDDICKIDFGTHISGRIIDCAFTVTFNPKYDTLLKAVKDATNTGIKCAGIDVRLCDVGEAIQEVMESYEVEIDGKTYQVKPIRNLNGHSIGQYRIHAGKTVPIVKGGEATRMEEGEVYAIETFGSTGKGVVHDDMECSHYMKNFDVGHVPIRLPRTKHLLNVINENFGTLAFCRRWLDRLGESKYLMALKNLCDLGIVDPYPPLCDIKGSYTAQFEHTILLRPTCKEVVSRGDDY

Row | Structure (SMILES) | IC50 [1] [µM] | Signal MetAp2/GAPDH normalized to untreated (DMSO) (MetAP-2 [2]; 0.1 μM, 6 hrs) | Signal MetAp2/GAPDH normalized to untreated (DMSO) (MetAP-2 [2]; 1 μM, 6 hrs) | Signal MetAp2/GAPDH normalized to untreated (DMSO) (MetAP-2 [2]; 1 μM, 48 hrs) | Signal MetAp2/GAPDH normalized to untreated (DMSO) (MetAP-2 [2]; 10 μM, 6 hrs) | Signal MetAp2/GAPDH normalized to untreated (DMSO) (MetAP-2 [2]; 10 μM, 48 hrs) | reduction of MetAP-2 protein (MetAP-2 [2]; 10 μM, after 48 h) [%] | IC50 (MetAP-2 [3]) [µM] | reduction of MetAP-2 protein (MetAP-2 [2]; 1 μM, after 6 h) [%] | reduction of MetAP-2 protein (MetAP-2 [2]; 1 μM, after 24 h) [%] | reduction of MetAP-2 protein (MetAP-2 [2]; 10 μM, after 6 h) [%]
1 | O=C1CCC(N2C(=O)c3ccc(NCCOCCOCCOCCOCCNC(=O)c4cc5cc(N6CCC(O)(C(=O)NCc7cc(F)cc(F)c7)C6=O)ccc5[nH]4)cc3C2=O)C(=O)N1 (stereo not shown) [Compound A2, 5-[3-[(3,5-difluorophenyl)methylcarbamoyl]-3-hydroxy-2-oxo-pyrrolidin-1-yl]-N-[2-[2-[2-[2-[2-[[2-(2,6-dioxo-3-piperidyl)-1,3-dioxo-isoindolin-5-yl]amino]-ethoxy]ethoxy]ethoxy]ethoxy]ethyl]-1H-indole-2-carboxamide] | 30 | 1.3 | 1.6 | 1.5 | 1.1 | 0.8 | 20 | 0.25 | – | – | –
2 | O=C1CCC(N2C(=O)c3cccc(NCCOCCOCCOCCOCCOCCNC(=O)c4cc5cc(N6CCC(O)(C(=O)NCc7cc(F)cc(F)c7)C6=O)ccc5[nH]4)c3C2=O)C(=O)N1 (stereo not shown) [Compound A1, 5-[3-[(3,5-difluorophenyl)methylcarbamoyl]-3-hydroxy-2-oxo-pyrrolidin-1-yl]-N-[2-[2-[2-[2-[2-[2-[[2-(2,6-dioxo-3-piperidyl)-1,3-dioxo-isoindolin-4-yl]amino]ethoxy]ethoxy]ethoxy]ethoxy]ethoxy]ethyl]-1H-indole-2-carboxamide] | 25 | 1.3 | 0.9 | 1.2 | 0.9 | 0.3 | 70 | 0.19 | 15 | 40 | 10

— patent publication US20220062258A1, “Heterocyclic derivatives” (Merck Patent GmbH, priority 2019, published 2022)
